This is an account of results in US10457677B2 (priority 2015, dated 2019).

Structures can show the parent of a compound that is named as a salt. Where two headings read alike, the source gives them in different places.

For experiment [1], the target named is purified human recombinant ATM (ataxia telangiectasia mutated), full length (Homo sapiens (Human), UniProt Q13315). Description: ATM kinase assay - determination of ATM inhibition (IC50 ATM), TR-FRET. The class given is biochemical. The essentials:
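Full-length enzyme, expressed in a mammalian cell line, pre-incubated 15 min with inhibitor in 25 mM HEPES pH 8.0, 10 mM Mg(CH3COO)2, 1 mM MnCl2, 0,1% BSA, 0,01% Brij 35, 5 mM DTT. Full-length cmyc-p53 (Sf21-expressed) and ATP then added, 30-35 min at 22° C. EDTA stop; p53 S15 phosphorylation read by TR-FRET antibodies.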

Experiment [2] deals with phosphorylation of CHK2 (phospho-Thr68) in HCT116 cells. Description: Cellular pCHK2 assay: bleomycin-induced phosphorylation of CHK2 (phospho-Thr68), immunofluorescence high-content analysis. The class given is cell-based, human. To be noted: Homo sapiens, HCT-116, 4 h, read-out: IC50 (pCHK2). The essentials: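 HCT116 cells in DMEM with 10% FCS, incubated overnight at 37° C, then given compounds (1 nM to 30 μM, 0.5% DMSO) together with 10 μM bleomycin. Phospho-Thr68 CHK2 immunostained and imaged by high-content imager; nuclei with pCHK2 above background counted, cell count from propidium iodide DNA stain.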

Experiment [3] addresses PI3K p110δ/p85α (human) (Homo sapiens (Human), UniProt O00329). As to the kind of experiment: PI3K p110δ/p85α (human), non-radioactive assay (HTRF). The class given is biochemical. To be noted: read-out: IC50 (PI3Kdelta). For orientation: In TR-FRET formats the signal depends on donor and acceptor labels being close together.
Experiment [4] addresses mTOR (human) (Homo sapiens (Human), UniProt P42345). As to the kind of experiment: mTOR (human) kinase assay, [γ-33P-ATP] filter assay. The class given is biochemical. The procedure, abridged:
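Radiometric filter assay: enzyme in 50 mM HEPES pH 7.5, 1 mM EGTA, 0.01% Tween 20, 3 mM MnCl2, 2 mg/ml substrate with [γ-33P-ATP], started with MgATP. Incubated 40 min at room temperature, stopped with 3% phosphoric acid; incorporation measured on P30 filtermat by scintillation counting.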

Experiment [5] deals with PI3K p110β/p85α (human) (Homo sapiens (Human), UniProt P42338). Description: PI3K p110β/p85α (human), non-radioactive assay (HTRF). Format: biochemical. To be noted: read-out: IC50 (PI3Kbeta). The procedure, abridged: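 Human p110β/p85α incubated with 10 μM phosphatidylinositol 4,5-bisphosphate and MgATP for 30 min at room temperature, stopped with EDTA plus biotinylated PIP3. HTRF detection used a Eu-anti-GST antibody, GST-GRP1 PH domain and streptavidin-APC, with signal taken as 10000×(Em665nm/Em620nm).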

Experiment [6] has as its target PI3K p110α/p85α (human) (Homo sapiens (Human), UniProt P42336). As to the kind of experiment: PI3K p110α/p85α (human), non-radioactive assay (HTRF). The class given is biochemical. To be noted: read-out: IC50 (PI3Kalpha).
The target in experiment [7] is PI3K (p120γ) (human) (Homo sapiens (Human), UniProt P48736). Description: PI3K (p120γ) (human), non-radioactive assay (HTRF). Format: biochemical. To be noted: read-out: IC50 (PI3Kgamma). The essentials:
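Enzyme was run with 10 μM phosphatidylinositol 4,5-bisphosphate, starting the reaction with MgATP at an unspecified level, for 30 min at room temperature. The stop used EDTA plus biotinylated PIP3, and detection used Eu-anti-GST, GST-GRP1 PH domain and streptavidin-APC. Signal was taken as HTRF = 10000×(Em665nm/Em620nm).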

Sequence of PI3K p110β/p85α (human) (P42338 whole entry, the tested form may be a part): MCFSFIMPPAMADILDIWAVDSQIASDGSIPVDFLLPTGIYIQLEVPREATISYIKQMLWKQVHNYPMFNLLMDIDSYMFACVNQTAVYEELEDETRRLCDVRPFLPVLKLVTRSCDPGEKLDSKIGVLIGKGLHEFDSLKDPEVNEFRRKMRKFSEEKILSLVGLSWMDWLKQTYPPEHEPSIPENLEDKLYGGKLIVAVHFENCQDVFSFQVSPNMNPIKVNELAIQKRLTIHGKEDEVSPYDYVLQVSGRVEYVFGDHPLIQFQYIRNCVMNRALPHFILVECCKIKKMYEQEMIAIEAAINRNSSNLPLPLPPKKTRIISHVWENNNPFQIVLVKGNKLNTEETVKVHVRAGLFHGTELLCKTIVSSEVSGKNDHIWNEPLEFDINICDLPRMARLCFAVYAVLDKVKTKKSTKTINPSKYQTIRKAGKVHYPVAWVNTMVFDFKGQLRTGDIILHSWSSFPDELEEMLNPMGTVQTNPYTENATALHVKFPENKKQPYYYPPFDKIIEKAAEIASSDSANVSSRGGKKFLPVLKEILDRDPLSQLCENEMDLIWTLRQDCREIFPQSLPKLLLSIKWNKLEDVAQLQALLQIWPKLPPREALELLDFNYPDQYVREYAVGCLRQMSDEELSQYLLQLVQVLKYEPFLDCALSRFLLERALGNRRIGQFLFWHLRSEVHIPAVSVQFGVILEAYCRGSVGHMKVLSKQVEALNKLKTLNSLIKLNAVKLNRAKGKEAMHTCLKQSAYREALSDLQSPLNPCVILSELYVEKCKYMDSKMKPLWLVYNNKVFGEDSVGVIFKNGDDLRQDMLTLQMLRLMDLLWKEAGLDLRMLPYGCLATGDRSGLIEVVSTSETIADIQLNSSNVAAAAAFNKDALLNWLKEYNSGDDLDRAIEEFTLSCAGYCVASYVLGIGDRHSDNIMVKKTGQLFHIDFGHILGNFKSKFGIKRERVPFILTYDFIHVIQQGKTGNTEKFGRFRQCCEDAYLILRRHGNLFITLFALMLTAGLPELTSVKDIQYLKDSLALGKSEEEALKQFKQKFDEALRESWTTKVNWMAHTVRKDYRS
Sequence of PI3K p110β/p85α (human) (P27986 whole entry partner, the tested form may be a part): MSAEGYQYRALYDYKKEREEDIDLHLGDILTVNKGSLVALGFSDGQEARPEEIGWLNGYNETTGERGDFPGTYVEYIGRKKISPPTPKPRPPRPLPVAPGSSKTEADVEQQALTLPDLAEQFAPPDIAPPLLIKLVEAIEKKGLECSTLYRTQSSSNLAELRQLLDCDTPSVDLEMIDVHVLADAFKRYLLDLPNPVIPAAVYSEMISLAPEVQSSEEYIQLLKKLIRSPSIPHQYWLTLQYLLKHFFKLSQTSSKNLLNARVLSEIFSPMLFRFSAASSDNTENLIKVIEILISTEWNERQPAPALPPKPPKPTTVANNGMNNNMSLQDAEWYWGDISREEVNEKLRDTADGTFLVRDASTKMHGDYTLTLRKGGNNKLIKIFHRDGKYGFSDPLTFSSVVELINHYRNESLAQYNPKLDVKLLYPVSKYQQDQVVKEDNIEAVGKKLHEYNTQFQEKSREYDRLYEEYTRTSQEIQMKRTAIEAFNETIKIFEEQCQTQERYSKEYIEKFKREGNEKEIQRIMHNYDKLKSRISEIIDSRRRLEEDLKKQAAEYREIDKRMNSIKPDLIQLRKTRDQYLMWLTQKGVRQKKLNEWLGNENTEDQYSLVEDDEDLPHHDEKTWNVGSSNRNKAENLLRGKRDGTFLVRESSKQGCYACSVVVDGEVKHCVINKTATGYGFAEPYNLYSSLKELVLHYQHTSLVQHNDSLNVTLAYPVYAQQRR
Sequence of PI3K (p120γ) (human) (P48736 whole entry, the tested form may be a part): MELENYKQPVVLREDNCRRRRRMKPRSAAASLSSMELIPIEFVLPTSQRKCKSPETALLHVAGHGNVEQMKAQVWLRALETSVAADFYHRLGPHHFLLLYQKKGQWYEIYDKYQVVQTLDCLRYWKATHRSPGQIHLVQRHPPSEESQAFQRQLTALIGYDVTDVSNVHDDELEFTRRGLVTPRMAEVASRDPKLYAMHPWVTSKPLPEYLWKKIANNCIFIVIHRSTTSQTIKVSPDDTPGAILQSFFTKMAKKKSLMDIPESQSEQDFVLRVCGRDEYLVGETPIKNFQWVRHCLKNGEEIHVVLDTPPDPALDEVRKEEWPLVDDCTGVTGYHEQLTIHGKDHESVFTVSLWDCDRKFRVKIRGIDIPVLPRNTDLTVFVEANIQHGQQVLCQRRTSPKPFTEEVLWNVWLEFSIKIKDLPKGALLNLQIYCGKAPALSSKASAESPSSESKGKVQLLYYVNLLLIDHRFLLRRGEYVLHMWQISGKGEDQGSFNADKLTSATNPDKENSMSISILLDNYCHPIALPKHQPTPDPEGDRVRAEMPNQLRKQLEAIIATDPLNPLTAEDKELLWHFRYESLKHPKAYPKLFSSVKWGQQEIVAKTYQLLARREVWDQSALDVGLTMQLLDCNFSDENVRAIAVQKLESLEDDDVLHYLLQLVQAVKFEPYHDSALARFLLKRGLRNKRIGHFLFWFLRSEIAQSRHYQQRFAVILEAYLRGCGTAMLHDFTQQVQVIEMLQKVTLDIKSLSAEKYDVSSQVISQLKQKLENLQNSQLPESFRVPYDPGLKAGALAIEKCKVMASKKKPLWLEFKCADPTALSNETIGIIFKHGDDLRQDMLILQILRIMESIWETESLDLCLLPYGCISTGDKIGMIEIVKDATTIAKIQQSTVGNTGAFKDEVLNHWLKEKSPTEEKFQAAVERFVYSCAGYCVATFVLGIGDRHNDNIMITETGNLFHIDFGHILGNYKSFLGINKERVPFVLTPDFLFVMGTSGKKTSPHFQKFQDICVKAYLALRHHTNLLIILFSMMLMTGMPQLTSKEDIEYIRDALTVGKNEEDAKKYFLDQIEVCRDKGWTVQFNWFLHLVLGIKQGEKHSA
Sequence of PI3K p110α/p85α (human) (P42336 whole entry): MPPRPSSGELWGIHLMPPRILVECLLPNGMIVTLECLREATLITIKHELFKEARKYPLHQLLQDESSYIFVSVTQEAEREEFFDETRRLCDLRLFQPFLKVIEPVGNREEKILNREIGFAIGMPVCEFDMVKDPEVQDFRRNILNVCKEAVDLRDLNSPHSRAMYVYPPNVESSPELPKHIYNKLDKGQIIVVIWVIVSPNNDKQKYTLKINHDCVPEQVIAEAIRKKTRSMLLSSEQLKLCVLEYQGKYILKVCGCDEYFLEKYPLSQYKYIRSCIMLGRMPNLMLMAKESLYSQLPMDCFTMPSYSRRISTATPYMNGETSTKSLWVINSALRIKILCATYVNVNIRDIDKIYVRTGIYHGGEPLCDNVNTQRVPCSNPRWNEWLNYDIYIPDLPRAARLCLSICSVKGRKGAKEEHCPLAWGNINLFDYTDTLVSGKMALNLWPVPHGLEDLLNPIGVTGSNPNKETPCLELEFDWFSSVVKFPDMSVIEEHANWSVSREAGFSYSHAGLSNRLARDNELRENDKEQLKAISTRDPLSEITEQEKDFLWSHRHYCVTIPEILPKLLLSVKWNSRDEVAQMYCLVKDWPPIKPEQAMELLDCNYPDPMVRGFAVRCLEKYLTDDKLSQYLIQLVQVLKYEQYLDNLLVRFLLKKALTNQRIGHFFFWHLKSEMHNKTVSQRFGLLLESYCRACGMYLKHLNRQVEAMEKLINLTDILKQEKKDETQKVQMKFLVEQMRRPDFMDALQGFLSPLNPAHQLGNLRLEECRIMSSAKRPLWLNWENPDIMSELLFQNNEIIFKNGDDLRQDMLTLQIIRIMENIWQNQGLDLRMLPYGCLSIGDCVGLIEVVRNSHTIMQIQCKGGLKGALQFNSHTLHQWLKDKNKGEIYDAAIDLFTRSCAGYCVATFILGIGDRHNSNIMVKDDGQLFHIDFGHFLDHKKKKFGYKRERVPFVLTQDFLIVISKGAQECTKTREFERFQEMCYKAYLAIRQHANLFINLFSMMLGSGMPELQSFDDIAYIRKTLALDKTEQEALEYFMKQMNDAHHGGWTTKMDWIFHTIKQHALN
Sequence of PI3K p110α/p85α (human) (P27986 whole entry partner): as the sequence (P27986 whole entry partner, the tested form may be a part) above
Sequence of PI3K p110δ/p85α (human) (O00329 whole entry): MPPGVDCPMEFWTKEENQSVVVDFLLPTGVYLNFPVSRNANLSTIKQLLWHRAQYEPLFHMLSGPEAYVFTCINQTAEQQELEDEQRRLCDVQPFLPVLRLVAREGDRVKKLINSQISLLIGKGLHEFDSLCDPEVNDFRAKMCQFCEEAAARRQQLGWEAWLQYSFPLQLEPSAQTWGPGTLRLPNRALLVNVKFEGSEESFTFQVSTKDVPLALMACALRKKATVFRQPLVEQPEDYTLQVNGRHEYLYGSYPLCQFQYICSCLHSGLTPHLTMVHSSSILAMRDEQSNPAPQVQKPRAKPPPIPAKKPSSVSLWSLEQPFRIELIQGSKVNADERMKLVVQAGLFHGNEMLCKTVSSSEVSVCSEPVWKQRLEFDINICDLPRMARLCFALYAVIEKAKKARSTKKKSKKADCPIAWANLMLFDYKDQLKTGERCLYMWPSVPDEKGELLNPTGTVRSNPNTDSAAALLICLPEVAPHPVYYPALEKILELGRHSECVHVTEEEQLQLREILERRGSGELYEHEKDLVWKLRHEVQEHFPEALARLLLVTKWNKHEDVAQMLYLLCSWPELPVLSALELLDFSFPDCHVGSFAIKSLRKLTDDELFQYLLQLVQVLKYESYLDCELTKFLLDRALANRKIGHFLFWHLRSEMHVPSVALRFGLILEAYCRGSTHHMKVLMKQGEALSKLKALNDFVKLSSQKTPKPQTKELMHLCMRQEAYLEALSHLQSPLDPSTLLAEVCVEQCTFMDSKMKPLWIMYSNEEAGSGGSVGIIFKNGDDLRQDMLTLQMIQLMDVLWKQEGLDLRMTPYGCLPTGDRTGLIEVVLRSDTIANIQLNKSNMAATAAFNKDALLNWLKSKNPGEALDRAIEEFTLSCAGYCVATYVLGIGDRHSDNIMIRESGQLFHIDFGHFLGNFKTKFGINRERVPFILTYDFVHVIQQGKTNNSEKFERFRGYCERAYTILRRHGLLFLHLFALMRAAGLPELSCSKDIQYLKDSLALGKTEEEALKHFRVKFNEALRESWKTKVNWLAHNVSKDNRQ
Sequence of PI3K p110δ/p85α (human) (P27986 whole entry partner): as the sequence (P27986 whole entry partner, the tested form may be a part) above

Regarding `CCc1cncc(F)c1-n1c(=O)n(C)c2cnc3cc(OC)c(-c4cnn(CC)c4)cc3c21` [Compound Example 25, 1-(3-Ethyl-5-fluoropyridin-4-yl)-8-(1-ethyl-1H-pyrazol-4-yl)-7-methoxy-3-methyl-1,3-dihydroimidazo[4,5-c] quinolin-2-one], the IC50 in experiment [1] is less than 0.001 µM; in experiment [1] (10 μM ATP, substrate p53), less than 0.001 µM; in experiment [2], less than 0.2 µM; in experiment [3] it was greater than 30 µM; in experiment [4] it was greater than 30 µM; in experiment [5], greater than 30 µM. The IC50 in experiment [6] and in experiment [7] was greater than 30 µM each time.

As for `COc1cc2ncc3c(c2cc1-c1cnn(C)c1)n(-c1ncc(C)cc1F)c(=O)n3C` [Compound Example 27, 1-(3-Fluoro-5-methylpyridin-2-yl)-7-methoxy-3-methyl-8-(1-methyl-1H-pyrazol-4-yl)-1,3-dihydroimidazo[4,5-c] quinolin-2-one], the IC50 in experiment [1] was less than 0.001 µM; in experiment [1] (10 μM ATP, substrate p53), less than 0.001 µM; in experiment [2], less than 0.2 µM; in experiment [3], greater than 30 µM; in experiment [4], greater than 30 µM; in experiment [5] it was greater than 30 µM. For the same compound, the IC50 in experiment [6] and in experiment [7] was greater than 30 µM throughout.

Regarding `COc1cc2ncc3c(c2cc1-c1cnn(C)c1)n(-c1ccncc1OC)c(=O)n3C` [Compound Example 28, 7-Methoxy-1-(3-methoxy-pyridin-4-yl)-3-methyl-8-(1-methyl-1H-pyrazol-4-yl)-1,3-dihydroimidazo[4,5-c] quinolin-2-one], the IC50 in experiment [1] was less than 0.01 µM; in experiment [1] (10 μM ATP, substrate p53) it was less than 0.01 µM; in experiment [2] it was less than 0.2 µM; in experiment [3], greater than 30 µM; in experiment [4] it was greater than 30 µM; in experiment [5], greater than 30 µM. Further, the IC50 in experiment [6] and in experiment [7] was greater than 30 µM in each case.

As for `COc1cc2ncc3c(c2cc1-c1cc(C)[nH]n1)n(-c1ncccc1F)c(=O)n3C` [Compound Example 29, 1-(3-Fluoropyridin-2-yl)-7-methoxy-3-methyl-8-(5-methyl-1H-pyrazol-3-yl)-1,3-dihydroimidazo[4,5-c] quinolin-2-one], the IC50 in experiment [1] was less than 0.01 µM; in experiment [1] (10 μM ATP, substrate p53) it was less than 0.01 µM; in experiment [2] it was less than 0.2 µM; in experiment [3], greater than 30 µM; in experiment [4], greater than 30 µM; in experiment [5], greater than 30 µM. The IC50 in experiment [6] and in experiment [7] was greater than 30 µM throughout.

Take `COc1cc2ncc3c(c2cc1-c1cn[nH]c1)n(-c1csc(C)n1)c(=O)n3C` [Compound Example 30, 7-Methoxy-3-methyl-1-(2-methylthiazol-4-yl)-8-(1H-pyrazol-4-yl)-1,3-dihydro-imidazo[4,5-c]quinolin-2-one]: the IC50 in experiment [1] is less than 0.01 µM; in experiment [1] (10 μM ATP, substrate p53), less than 0.01 µM; in experiment [2], less than 0.2 µM; in experiment [3], greater than 30 µM; in experiment [4], greater than 30 µM; in experiment [5] it was greater than 30 µM. Also, the IC50 in experiment [6] and in experiment [7] was greater than 30 µM in each case.

In the case of `COc1cc2ncc3c(c2cc1-c1cnn(C)c1)n(-c1ncncc1F)c(=O)n3C` [Compound Example 31, 1-(5-Fluoropyrimidin-4-yl)-7-methoxy-3-methyl-8-(1-methyl-1H-pyrazol-4-yl)-1H,2H,3H-imidazo[4,5-c] quinolin-2-one hydrochloride], the IC50 in experiment [1] is less than 0.01 µM; in experiment [1] (10 μM ATP, substrate p53), less than 0.01 µM; in experiment [2] it was less than 0.2 µM; in experiment [3], greater than 30 µM; in experiment [4], greater than 30 µM; in experiment [5], greater than 30 µM. Besides, the IC50 in experiment [6] and in experiment [7] was greater than 30 µM in each case.
